In the NIST ThermoML archive (doi:10.1016/j.jct.2006.07.025):

Experiment: xn = mol fraction of the nth substance listed
Conditions: for surface tension liquid-gas: Pendant drop shape; for mass density: 101 kPa, Liquid, Vibrating tube method

Cc1ccc(C)c(C)c1 [1,2,4-trimethylbenzene] + CCCCOC(C)=O
Conditions | mass density [kg/m3] | surface tension liquid-gas [mN/m]
298.15 K, x2 = 0 | 871.66 | 29.17
298.15 K, x2 = 0.0563 | 871.92 | –
298.15 K, x2 = 0.0998 | – | 28.68
298.15 K, x2 = 0.1045 | 872.14 | –
298.15 K, x2 = 0.1496 | 872.35 | –
298.15 K, x2 = 0.1996 | 872.58 | –
298.15 K, x2 = 0.2001 | – | 28.2
298.15 K, x2 = 0.2533 | 872.82 | –
298.15 K, x2 = 0.2994 | – | 27.73
298.15 K, x2 = 0.2998 | 873.03 | –
298.15 K, x2 = 0.3552 | 873.27 | –
298.15 K, x2 = 0.3998 | 873.46 | –
298.15 K, x2 = 0.4003 | – | 27.25
298.15 K, x2 = 0.45 | 873.68 | –
298.15 K, x2 = 0.4958 | – | 26.78
298.15 K, x2 = 0.5001 | 873.9 | –
298.15 K, x2 = 0.5503 | 874.11 | –
298.15 K, x2 = 0.5995 | 874.32 | –
298.15 K, x2 = 0.6001 | – | 26.33
298.15 K, x2 = 0.6495 | 874.54 | –
298.15 K, x2 = 0.6998 | 874.75 | –
298.15 K, x2 = 0.6999 | – | 25.93
298.15 K, x2 = 0.7495 | 874.97 | –
298.15 K, x2 = 0.7998 | – | 25.57
298.15 K, x2 = 0.7999 | 875.2 | –
298.15 K, x2 = 0.8499 | 875.43 | –
298.15 K, x2 = 0.8989 | 875.67 | –
298.15 K, x2 = 0.8997 | – | 25.23
298.15 K, x2 = 0.9478 | 875.91 | –
303.15 K, x2 = 0 | 867.61 | 28.67
303.15 K, x2 = 0.1001 | 867.99 | 28.18
303.15 K, x2 = 0.2009 | 868.38 | 27.69
303.15 K, x2 = 0.3006 | 868.73 | 27.22
303.15 K, x2 = 0.4001 | 869.1 | 26.73
303.15 K, x2 = 0.5004 | 869.45 | 26.27
303.15 K, x2 = 0.6006 | 869.81 | 25.8
303.15 K, x2 = 0.7001 | 870.15 | 25.4
303.15 K, x2 = 0.7997 | 870.43 | 25.03
303.15 K, x2 = 0.9 | 870.91 | 24.7
308.15 K, x2 = 0 | 863.59 | 28.17
308.15 K, x2 = 0.1005 | 863.87 | 27.67
308.15 K, x2 = 0.1998 | 864.16 | 27.18
308.15 K, x2 = 0.3004 | 864.42 | 26.7
308.15 K, x2 = 0.4003 | 864.67 | 26.21
308.15 K, x2 = 0.5007 | 864.93 | 25.75
308.15 K, x2 = 0.5991 | 865.17 | 25.28
308.15 K, x2 = 0.6995 | 865.43 | 24.87
308.15 K, x2 = 0.7999 | 865.68 | 24.5
308.15 K, x2 = 0.9004 | 865.94 | 24.16
313.15 K, x2 = 0 | 859.54 | 27.67
313.15 K, x2 = 0.0499 | 859.66 | –
313.15 K, x2 = 0.1002 | 859.76 | 27.12
313.15 K, x2 = 0.1503 | 859.87 | –
313.15 K, x2 = 0.1995 | 859.98 | 26.55
313.15 K, x2 = 0.25 | 860.08 | –
313.15 K, x2 = 0.3 | 860.19 | 26.02
313.15 K, x2 = 0.35 | 860.28 | –
313.15 K, x2 = 0.3996 | 860.37 | 25.48
313.15 K, x2 = 0.4499 | 860.46 | –
313.15 K, x2 = 0.5002 | 860.56 | 24.99
313.15 K, x2 = 0.5499 | 860.65 | –
313.15 K, x2 = 0.5998 | 860.73 | 24.55
313.15 K, x2 = 0.6503 | 860.82 | –
313.15 K, x2 = 0.6999 | 860.91 | 24.2
313.15 K, x2 = 0.7499 | 861.01 | –
313.15 K, x2 = 0.8004 | 861.1 | 23.9
313.15 K, x2 = 0.85 | 861.21 | –
313.15 K, x2 = 0.9005 | 861.33 | 23.62
313.15 K, x2 = 0.9496 | 861.45 | –

Cc1ccc(C)c(C)c1 [1,2,4-trimethylbenzene] + CCCOC(C)=O
Conditions | mass density [kg/m3] | surface tension liquid-gas [mN/m]
298.15 K, x2 = 0 | 871.66 | 29.17
298.15 K, x2 = 0.0607 | 872.13 | –
298.15 K, x2 = 0.1002 | 872.45 | 28.61
298.15 K, x2 = 0.1578 | 872.95 | –
298.15 K, x2 = 0.2008 | 873.32 | 28.06
298.15 K, x2 = 0.2518 | 873.78 | –
298.15 K, x2 = 0.302 | 874.24 | 27.51
298.15 K, x2 = 0.3504 | 874.71 | –
298.15 K, x2 = 0.4003 | 875.2 | 26.97
298.15 K, x2 = 0.4568 | 875.78 | –
298.15 K, x2 = 0.4993 | 876.23 | 26.44
298.15 K, x2 = 0.549 | 876.77 | –
298.15 K, x2 = 0.6006 | 877.36 | 25.93
298.15 K, x2 = 0.6494 | 877.93 | –
298.15 K, x2 = 0.7006 | 878.55 | 25.44
298.15 K, x2 = 0.7493 | 879.16 | –
298.15 K, x2 = 0.7991 | 879.8 | 24.96
298.15 K, x2 = 0.8497 | 880.49 | –
298.15 K, x2 = 0.8991 | 881.17 | 24.48
298.15 K, x2 = 0.9464 | 881.86 | –
303.15 K, x2 = 0 | 867.61 | 28.67
303.15 K, x2 = 0.0982 | 868.25 | 28.09
303.15 K, x2 = 0.1994 | 868.98 | 27.53
303.15 K, x2 = 0.3006 | 869.76 | 26.96
303.15 K, x2 = 0.3996 | 870.56 | 26.4
303.15 K, x2 = 0.503 | 871.46 | 25.86
303.15 K, x2 = 0.6003 | 872.41 | 25.34
303.15 K, x2 = 0.6979 | 873.41 | 24.83
303.15 K, x2 = 0.7993 | 874.52 | 24.34
303.15 K, x2 = 0.8992 | 875.72 | 23.86
308.15 K, x2 = 0 | 863.59 | 28.17
308.15 K, x2 = 0.0986 | 864.07 | 27.57
308.15 K, x2 = 0.1998 | 864.65 | 26.99
308.15 K, x2 = 0.3028 | 865.29 | 26.41
308.15 K, x2 = 0.4004 | 865.93 | 25.83
308.15 K, x2 = 0.5036 | 866.67 | 25.27
308.15 K, x2 = 0.6003 | 867.44 | 24.74
308.15 K, x2 = 0.6977 | 868.27 | 24.22
308.15 K, x2 = 0.8 | 869.22 | 23.72
308.15 K, x2 = 0.9005 | 870.23 | 23.23
313.15 K, x2 = 0 | 859.54 | 27.67
313.15 K, x2 = 0.0497 | 859.64 | –
313.15 K, x2 = 0.0998 | 859.82 | –
313.15 K, x2 = 0.1005 | – | 27.05
313.15 K, x2 = 0.15 | 860.01 | –
313.15 K, x2 = 0.2001 | 860.24 | 26.46
313.15 K, x2 = 0.2498 | 860.45 | –
313.15 K, x2 = 0.2999 | 860.71 | 25.86
313.15 K, x2 = 0.35 | 860.98 | –
313.15 K, x2 = 0.4001 | 861.25 | 25.26
313.15 K, x2 = 0.4503 | 861.53 | –
313.15 K, x2 = 0.4997 | 861.83 | –
313.15 K, x2 = 0.4998 | – | 24.69
313.15 K, x2 = 0.5502 | 862.15 | –
313.15 K, x2 = 0.6001 | 862.48 | 24.15
313.15 K, x2 = 0.6499 | 862.81 | –
313.15 K, x2 = 0.7 | 863.18 | –
313.15 K, x2 = 0.7002 | – | 23.61
313.15 K, x2 = 0.7503 | 863.54 | –
313.15 K, x2 = 0.7998 | 863.94 | 23.1
313.15 K, x2 = 0.85 | 864.35 | –
313.15 K, x2 = 0.9002 | 864.79 | 22.61
313.15 K, x2 = 0.9495 | 865.18 | –
